Reference: US7582483B2, “Method of detecting viable cells” (Fuji Electric Holdings Co., Ltd., priority 2004, dated 2009)

Test system: Escherichia coli
Assay: detection of viable microbes in solid food (namul of spinach) with added Escherichia coli, CFDA and Phenol Red solutions at various pH
Assay type: cell-based
Conditions: pH 5 of the CFDA solution and the Phenol Red solution
Procedure: In a second example, detection of live microbes was conducted using solid food (namul of spinach) to which Escherichia coli were added. The treatment to extract the microbes from the solid food into liquid was carried out referring to “A Guide to Food Sanitation Test, Volume on Microorganisms” (in Japanese; published by Japan Food Hygiene Association, 1990). Ten grams of the solid food (namul of spinach) to which Escherichia coli (about 10^7) was added was aliquoted into a stomacher bag. (The stomacher bag is made of flexible plastic film such as polyethylene and sterilized by radiation. There is a compartment inside the stomacher bag created by a partition of non-woven fabric or a plastic film with a pore size of about 0.28 mm diameter, and a liquid component can be extracted excluding relatively large solid bodies from the compartment. The aliquot of the solid food is supplied with 90 mL of sterile phosphate buffer saline and crushed and dispersed using a stomacher. A stomacher is an apparatus for extracting live microbes contained in food to liquid. In the stomacher, the stomacher bag containing food is placed between a fixed plate and a paddle and the food is crushed and dispersed by squeezing the bag containing food while moving the paddle back and forth. […] Using the liquid, viable microbes were detected in a procedure similar to that in Example 1. […]

## carboxyfluorescein diacetate [CFDA]
  staining of viable microbes with the fluorescent dye: the viable microbes were not stained with the fluorescent dye
